Results on 21 compounds are retold here after patent US6821980B1, “Substituted 5-benzyl-2,4-diaminopyrimidines” (Basilea Pharmaceutica AG, priority 1999, dated 2004).

Assay [1] deals with Streptococcus pneumoniae 1/1. Nature of the assay: MIC against Streptococcus pneumoniae 1/1. It counts as cell-based. Particulars: Streptococcus pneumoniae 1/1, trimethoprim- and penicillin-resistant, serotype 6, clinical isolate; for MIC: read-out: MIC Sp1/1.
In assay [2] the target is purified DHFR of strain 157/4696 of Staphylococcus aureus (Staphylococcus aureus, UniProt P13955). Description: biochemical.
purified DHFR of strain 157/4696 of Staphylococcus aureus, sequence (P13955 whole entry): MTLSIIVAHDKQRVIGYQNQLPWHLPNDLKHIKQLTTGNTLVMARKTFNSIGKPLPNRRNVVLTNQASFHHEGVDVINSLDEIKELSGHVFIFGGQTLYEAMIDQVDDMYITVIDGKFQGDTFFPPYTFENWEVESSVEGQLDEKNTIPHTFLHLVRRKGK
Assay [3] concerns the target T1, purified DHFR of strain Sp1/1 of Streptococcus pneumoniae (Streptococcus pneumoniae serotype 4, UniProt Q54801).
T1 sequence (Q54801 1-168 I100L): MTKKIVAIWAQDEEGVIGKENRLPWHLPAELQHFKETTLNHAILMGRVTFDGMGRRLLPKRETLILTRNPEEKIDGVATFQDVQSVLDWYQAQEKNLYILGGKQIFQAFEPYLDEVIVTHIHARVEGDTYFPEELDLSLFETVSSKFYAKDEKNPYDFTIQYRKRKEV
The assay is classed as biochemical. As to conditions: IC50 against purified DHFR of strain Sp1/1.

In assay [4] the test system is Staphylococcus aureus 101. Nature of the assay: MIC against Staphylococcus aureus 101. Particulars: Staphylococcus aureus 101, MRSA- and trimethoprim-resistant, clinical isolate; for MIC: read-out: MIC Sa101. It counts as cell-based.
The mark [5] stands for this setting: Table 2, IC50 against purified DHFR of strain 157/4696 (highly trimethoprim-resistant; clinical isolate), read-out: DHFR Sa1.

Structures are written as SMILES. Values after ≈ are worked out from the molar mass of the structure shown. Like-named read-outs stand apart in the source and are kept apart here.

Turning to `CCOc1cc(Cc2cnc(N)nc2N)cc(OS(=O)(=O)N(C)C2CC2)c1-c1ccc(CN2CCOCC2)c(N)c1` [Example 30-b, N-Cyclopropyl-N-methyl-sulphamic acid 3′-amino-4-(2,4-diamino-pyrimidin-5-ylmethyl)-6-ethoxy-4′-morpholin-4-ylmethyl-biphenyl-2-yl ester], the MIC in assay [1] (Table 2) and in assay [4] (Table 2) was 2 µg/mL (≈ 3.43 µM) each time. Further, the IC50 in assay [2] stood at 37 nM; in assay [3] (Table 2) it was 14 nM.

On to `CCOc1cc(Cc2cnc(N)nc2N)cc(OS(=O)(=O)N(C)CC)c1-c1ccc(CN2CCOCC2)c(N)c1` [Example 30-c, N-Ethyl-N-methyl-sulphamic acid 3′-amino-4-(2,4-diamino-pyrimidin-5-ylmethyl)-6-ethoxy-4′-morpholin-4-ylmethyl-biphenyl-2-yl ester], for which the MIC in assay [1] (Table 2) and in assay [4] (Table 2) was 2 µg/mL (≈ 3.5 µM) in each case. Further, the values for the IC50 in assay [2] and in assay [3] (Table 2) were 140 nM and 16 nM, respectively.

As to `CCOc1cc(Cc2cnc(N)nc2N)cc(OS(=O)(=O)N(C)CC)c1-c1ccc(C)c(N)c1` [Example 31-b, N-Ethyl-N-methyl-sulphamic acid 3′-amino-4-(2,4-diamino-pyrimidin-5-ylmethyl)-6-ethoxy-4′-methyl-biphenyl-2-yl ester], the MIC in assay [1] (Table 2) amounted to 1 µg/mL (≈ 2.06 µM); in assay [4] (Table 2), 2 µg/mL (≈ 4.11 µM). Further, the IC50 is 130 nM in assay [2] and 4.4 nM in assay [3] (Table 2).

Consider `CCOc1cc(Cc2cnc(N)nc2N)cc(OS(=O)(=O)N(C)C)c1-c1ccc(C)c(N)c1` [Example 31a, Dimethylsulphamic acid 3′-amino-4-(2,4-diamino-pyrimidin-5-ylmethyl)-6-ethoxy-4′-methyl-biphenyl-2-yl ester], for which the MIC in assay [1] (Table 1) and in assay [4] (Table 1) was 1 µg/mL (≈ 2.12 µM) each time. In addition, the IC50 in assay [2] amounted to 110 nM; in assay [3] (Table 1) it was 1.9 nM.

Turning to `CCCS(=O)(=O)Oc1cc(Cc2cnc(N)nc2N)cc(OCC)c1-c1ccc(CN2CCOCC2)c(N)c1` [Example 32-a, Pronane-1-sulophonic acid 3′-amino-4-(2,4-diamino-pyrimidin-5-ylmethyl)-6-ethoxy-4′-morpholinemethyl-4-ylmethyl-biphenyl-2-yl ester], the “MIC Sp1/1” value in assay [1] (Table 2) worked out at 1 µg/mL (≈ 1.8 µM). Besides, the IC50 in assay [2] (setting [5]) amounted to 120 nM; in assay [3] (Table 2) it was 4.6 nM. The “MIC Sa101” value in assay [4] (Table 2) is 4 µg/mL (≈ 7.19 µM).

Take `CCCS(=O)(=O)Oc1cc(Cc2cnc(N)nc2N)cc(OCC)c1-c1ccc(N)c(C)c1` [Example 32-b]: the “MIC Sp1/1” value in assay [1] (Table 2) was 1 µg/mL (≈ 2.12 µM). Further, the values for the IC50 in assay [2] (setting [5]) and in assay [3] (Table 2) were 160 nM and 4.2 nM, respectively. Further, the “MIC Sa101” value in assay [4] (Table 2) stood at 4 µg/mL (≈ 8.48 µM).

As to `CCCS(=O)(=O)Oc1cc(Cc2cnc(N)nc2N)cc(OCC)c1-c1ccc(F)c(N)c1` [Example 32-c], the “MIC Sp1/1” value in assay [1] (Table 2) is 1 µg/mL (≈ 2.1 µM). Also, the IC50 in assay [2] (setting [5]) was determined as 130 nM; in assay [3] (Table 2) it was 6.1 nM. Besides, in assay [4] (Table 2), the “MIC Sa101” value worked out at 4 µg/mL (≈ 8.41 µM).

On to `CCCS(=O)(=O)Oc1cc(Cc2cnc(N)nc2N)cc(OCC)c1-c1ccc(OC)c(N)c1` [Example 32-d, Propane-1-sulphonic acid 3′-amino-4-(2,4-diamino-pyrimidin-5-ylmethyl)-6-ethoxy-4′-methoxy-4-ylmethyl-biphenyl-2-yl ester], for which the “MIC Sp1/1” value in assay [1] (Table 2) worked out at 1 µg/mL (≈ 2.05 µM). Moreover, the IC50 in assay [2] (setting [5]) is 140 nM; in assay [3] (Table 2) it was 5.9 nM. In addition, the “MIC Sa101” value in assay [4] (Table 2) was 2 µg/mL (≈ 4.1 µM).

In the case of `CCCS(=O)(=O)Oc1cc(Cc2cnc(N)nc2N)cc(OCC)c1-c1ccc(N)c(F)c1` [Example 32-e, Propane-1-sulphonic acid 4′-amino-4-(2,4-diamino-pyrimidin-5-ylmethyl)-6-ethoxy-3′-fluoro-4-ylmethyl-biphenyl-2-yl ester], the “MIC Sp1/1” value in assay [1] (Table 2) came to 1 µg/mL (≈ 2.1 µM). Further, the IC50 was determined as 280 nM in assay [2] (setting [5]) and 6.8 nM in assay [3] (Table 2). Besides, the “MIC Sa101” value in assay [4] (Table 2) stood at 4 µg/mL (≈ 8.41 µM).

As for `CCCS(=O)(=O)Oc1cc(Cc2cnc(N)nc2N)cc(OCC)c1-c1cc(N)cc(F)c1` [Example 32-f, Propane-1-sulphonic acid 3′-amino-4-(2,4-diamino-pyrimidin-5-ylmethyl)-6-ethoxy-5′-fluoro-4-ylmethyl-biphenyl-2-yl ester], in assay [1] (Table 2), the “MIC Sp1/1” value stood at 1 µg/mL (≈ 2.1 µM). Further, the IC50 in assay [2] (setting [5]) amounted to 420 nM; in assay [3] (Table 2) it was 30 nM. In addition, in assay [4] (Table 2), the “MIC Sa101” value was determined as 4 µg/mL (≈ 8.41 µM).

As for `CCCS(=O)(=O)Oc1cc(Cc2cnc(N)nc2N)cc(OCC)c1-c1ccc(CN(C)C)c(N)c1` [Example 32-g, Propane-1-sulphonic acid 3′-amino-4-(2,4-diamino-pyrimidin-5-ylmethyl)-6-ethoxy-4′-dimethylaminomethyl-4-ylmethyl-biphenyl-2-yl ester], the “MIC Sp1/1” value in assay [1] (Table 2) was 4 µg/mL (≈ 7.77 µM). Moreover, the IC50 in assay [2] (setting [5]) came to 68 nM; in assay [3] (Table 2), 75 nM. In addition, in assay [4] (Table 2), the “MIC Sa101” value amounted to 8 µg/mL (≈ 15.5 µM).

With `CCOc1cc(Cc2cnc(N)nc2N)cc(OS(=O)(=O)C(C)C)c1-c1ccc(OC)c(N)c1` [Example 33-a, Propane-2-sulphonic acid 3′-amino-4-(2,4-diamino-pyrimidin-5-ylmethyl)-6-ethoxy-4′-methoxy-4-ylmethyl-biphenyl-2-yl ester], the MIC in assay [1] (Table 2) and in assay [4] (Table 2) was 1 µg/mL (≈ 2.05 µM) each time. Also, the results for the IC50 in assay [2] and in assay [3] (Table 2) were 65 nM and 12 nM, respectively.

With `CCOc1cc(Cc2cnc(N)nc2N)cc(OS(=O)(=O)C(C)C)c1-c1ccc(N)c(F)c1` [Example 33-b, Propane-2-sulphonic acid 4′-amino-4-(2,4-diamino-pyrimidin-5-ylmethyl)-6-ethoxy-3′-fluoro-4-ylmethyl-biphenyl-2-yl ester], the MIC in assay [1] (Table 2) came to 1 µg/mL (≈ 2.1 µM); in assay [4] (Table 2), 2 µg/mL (≈ 4.21 µM). Further, the IC50 in assay [2] amounted to 260 nM; in assay [3] (Table 2), 14 nM.

In the case of `CCOc1cc(Cc2cnc(N)nc2N)cc(OS(=O)(=O)C(C)C)c1-c1cc(N)cc(F)c1` [Example 33-c, Propane-2-sulphonic acid 3′-amino-4-(2,4-diamino-pyrimidin-5-ylmethyl)-6-ethoxy-5′-fluoro-4-ylmethyl-biphenyl-2-yl ester], the “MIC Sp1/1” value in assay [1] (Table 2) amounted to 2 µg/mL (≈ 4.21 µM). Besides, the values for the IC50 in assay [2] (setting [5]) and in assay [3] (Table 2) were 100 nM and 14 nM, respectively. Besides, the “MIC Sa101” value in assay [4] (Table 2) is 2 µg/mL (≈ 4.21 µM).

`CCOc1cc(Cc2cnc(N)nc2N)cc(OS(=O)(=O)C(C)C)c1-c1ccc(CN2CCOCC2)c(N)c1` [Example 33-d, Propane-2-sulphonic acid 3′-amino-4-(2,4-diamino-pyrimidin-5-ylmethyl)-6-ethoxy-4′-morpholinemethyl-4-ylmethyl-biphenyl-2-yl ester]: the “MIC Sp1/1” value in assay [1] (Table 2) came out at 2 µg/mL (≈ 3.59 µM). The IC50 stood at 39 nM in assay [2] (setting [5]) and 9.1 nM in assay [3] (Table 2). For the same compound, the “MIC Sa101” value in assay [4] (Table 2) is 2 µg/mL (≈ 3.59 µM).

On to `CCOc1cc(Cc2cnc(N)nc2N)cc(OS(=O)(=O)C(C)C)c1-c1ccc(CN(C)C)c(N)c1` [Example 33-f, Propane-2-sulphonic acid 3′-amino-4-(2,4-diamino-pyrimidin-5-ylmethyl)-6-ethoxy-4′-dimethylaminomethyl-biphenyl-2-yl ester], for which the MIC in assay [1] (Table 2) worked out at 8 µg/mL (≈ 15.5 µM); in assay [4] (Table 2), 2 µg/mL (≈ 3.89 µM). Besides, the IC50 in assay [2] was found to be 42 nM; in assay [3] (Table 2) it was 89 nM.

As for `CCOc1cc(Cc2cnc(N)nc2N)cc(OS(=O)(=O)C(C)C)c1-c1ccc(C)nc1` [Example 33-g, Propane-2-sulphonic acid 5-(2,4-diamino-pyrimidin-5-ylmethyl)-3-ethoxy-2-(6-methyl-pyridin-3-yl)-phenyl ester], the MIC was determined as 8 µg/mL (≈ 17.5 µM) in assay [1] (Table 2) and 4 µg/mL (≈ 8.74 µM) in assay [4] (Table 2). For the same compound, the IC50 was 980 nM in assay [2] and 76 nM in assay [3] (Table 2).

Take `CCOc1cc(Cc2cnc(N)nc2N)cc(OS(=O)(=O)C(C)C)c1-c1ccc(N)c(C)c1` [Example 33e, Propane-2-sulphonic acid 4′-amino-4-(2,4-diamino-pyrimidin-5-ylmethyl)-6-ethoxy-3′-methyl-biphenyl-2-yl ester]: the MIC in assay [1] (Table 1) and in assay [4] (Table 1) was 1 µg/mL (≈ 2.12 µM) throughout. Moreover, the IC50 in assay [2] was determined as 200 nM; in assay [3] (Table 1), 19 nM.

Regarding `CCOc1cc(Cc2cnc(N)nc2N)cc(OS(=O)(=O)C2CC2)c1-c1cccc(N)c1` [Example 34-a, Cyclopropanesulphonic acid 3′-amino-4-(2,4-diamino-pyrimidin-5-ylmethyl)-6-ethoxy-bilphenyl-2-yl ester], the MIC in assay [1] (Table 2) is 1 µg/mL (≈ 2.2 µM); in assay [4] (Table 2), 2 µg/mL (≈ 4.39 µM). For the same compound, the IC50 in assay [2] came out at 270 nM; in assay [3] (Table 2) it was 9.2 nM.

With `CCOc1cc(Cc2cnc(N)nc2N)cc(OS(=O)(=O)C2CC2)c1-c1ccc(NC)cc1` [Example 34-b, Cyclopropanesulphonic acid 4-(2,4-diamino-Ryrimidin-5-ylmethyl)-6-ethoxy-4′-methylamino-biphenyl-2-yl ester], the values for the MIC in assay [1] (Table 2) and in assay [4] (Table 2) were 1 µg/mL (≈ 2.13 µM) and 2 µg/mL (≈ 4.26 µM), respectively. In addition, the results for the IC50 in assay [2] and in assay [3] (Table 2) were 210 nM and 11 nM, respectively.

Consider `CCOc1cc(Cc2cnc(N)nc2N)cc(OS(=O)(=O)C2CC2)c1-c1cc(N)cc(F)c1` [Example 34-c, Cyclopropanesulphonic acid 3′-amino-4-(2,4-diamino-pyrimidin-5-ylmethyl)-6-ethoxy-5′-fluoro-biphenyl-2-yl ester], for which the results for the MIC in assay [1] (Table 2) and in assay [4] (Table 2) were 2 µg/mL (≈ 4.22 µM) and 4 µg/mL (≈ 8.45 µM), respectively. The IC50 in assay [2] was determined as 190 nM; in assay [3] (Table 2), 3.4 nM.
